Results as given in patent US8703428B2, “Single-cell label-free assay” (Corning Incorporated, priority 2007, dated 2014).

Biological target: β2-adrenergic receptor (β2AR) (Homo sapiens, UniProt P07550)
Description: For kinetic assays, the cells were washed with HBSS (Hanks Balanced Salt Solution with 20 mM HEPES) buffer.

Sequence of β2-adrenergic receptor (β2AR) (P07550 whole entry): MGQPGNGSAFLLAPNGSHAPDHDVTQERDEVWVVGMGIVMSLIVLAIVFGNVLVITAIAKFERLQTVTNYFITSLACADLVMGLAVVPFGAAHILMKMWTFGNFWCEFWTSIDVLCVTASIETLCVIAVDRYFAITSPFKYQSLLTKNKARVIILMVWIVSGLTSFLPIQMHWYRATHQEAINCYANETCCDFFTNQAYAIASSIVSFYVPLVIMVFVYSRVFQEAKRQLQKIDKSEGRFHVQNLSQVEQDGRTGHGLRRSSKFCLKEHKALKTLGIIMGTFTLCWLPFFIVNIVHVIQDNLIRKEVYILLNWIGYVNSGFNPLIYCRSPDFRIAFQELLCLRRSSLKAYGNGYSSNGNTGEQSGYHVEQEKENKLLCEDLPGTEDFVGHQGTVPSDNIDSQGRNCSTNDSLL

With CNC[C@H](O)c1ccc(O)c(O)c1 [epinephrine] the “epinephrine-induced DMR signal (phases)” value (A431 cells) was “a small N-DMR, followed by a significant P-DMR event”, the “epinephrine-induced DMR signal, dose dependence” value (A431 cells) was “dose-dependent DMR signal” and the “distribution of DMR signals (P-DMR amplitude, transition time)” value (quiescent A431 cells, about 100% confluency, 2 nM epinephrine, pixel level) was “relatively tight distribution and are relatively homogenous”.
